Laboratory results as given in ChEMBL document CHEMBL1649173, “Single-dose escalation and multiple-dose safety, tolerability, and pharmacokinetics of IDX899, a candidate human immunodeficiency virus type 1 nonnucleoside reverse transcriptase inhibitor, in healthy subjects” (Antimicrob Agents Chemother, 2009).

Key:
[1] = Apparent total volume of distribution in fed state female healthy human at 400 mg, po administered as single dose; type: ADME, organism-based; conditions: in vivo, read-out: Vz/F
[2] = Apparent total volume of distribution in fed state healthy human at 800 mg, po administered as single dose; type: ADME, organism-based; conditions: in vivo, read-out: Vz/F
[3] = Apparent total volume of distribution in fed state healthy human at 1200 mg, po administered as single dose; type: ADME, organism-based; conditions: in vivo, read-out: Vz/F
[4] = AUC (0 to infinity) in healthy human at 400 mg, po bid after 7 days; type: ADME, organism-based; set-up: dose 400 mg, route oral, time infinity; conditions: plasma
[5] = Cmax in healthy human at 400 mg, po bid after 1 day; type: ADME, organism-based; set-up: dose 400 mg, route oral; conditions: in vivo
[6] = Cmax in healthy human at 400 mg, po bid after 7 days; type: ADME, organism-based; set-up: dose 400 mg, route oral; conditions: in vivo
[7] = Tmax in healthy human at 400 mg, po bid after 1 day; type: ADME, organism-based; conditions: in vivo
[8] = Tmax in healthy human at 400 mg, po bid after 7 days; type: ADME, organism-based; conditions: in vivo
[9] = Half life in healthy human at 400 mg, po bid after 7 days; type: ADME, organism-based; conditions: in vivo
[10] = Trough plasma concentration in healthy human at 400 mg, po bid after 1 day; type: ADME, organism-based; conditions: read-out: Cmin
[11] = Trough plasma concentration in healthy human at 400 mg, po bid after 7 days; type: ADME, organism-based; conditions: read-out: Cmin
[12] = Apparent total plasma clearance in healthy human at 400 mg, po bid after 7 days; type: ADME, organism-based
[13] = Apparent total volume of distribution in healthy human at 400 mg, po bid after 7 days; type: ADME, organism-based; conditions: in vivo, read-out: Vz/F
[14] = AUC (0 to infinity) in healthy human at 800 mg, po qd after 1 day; type: ADME, organism-based; set-up: dose 800 mg, time infinity, route oral; conditions: plasma
[15] = AUC (0 to infinity) in healthy human at 800 mg, po qd after 7 days; type: ADME, organism-based; set-up: dose 800 mg, route oral, time infinity; conditions: plasma
[16] = Cmax in healthy human at 800 mg, po qd after 1 day; type: ADME, organism-based; set-up: dose 800 mg, route oral; conditions: in vivo
[17] = Cmax in healthy human at 800 mg, po qd after 7 days; type: ADME, organism-based; set-up: dose 800 mg, route oral; conditions: in vivo
[18] = Tmax in healthy human at 800 mg, po qd after 1 day; type: ADME, organism-based; conditions: in vivo
[19] = Tmax in healthy human at 800 mg, po qd after 7 days; type: ADME, organism-based; conditions: in vivo
[20] = Half life in healthy human at 800 mg, po qd after 1 day; type: ADME, organism-based; conditions: in vivo
[21] = Trough plasma concentration in healthy human at 800 mg, po qd after 1 day; type: ADME, organism-based; conditions: read-out: Cmin
[22] = Trough plasma concentration in healthy human at 800 mg, po qd after 7 days; type: ADME, organism-based; conditions: read-out: Cmin
[23] = Apparent total plasma clearance in healthy human at 800 mg, po qd after 1 day; type: ADME, organism-based
[24] = Apparent total plasma clearance in healthy human at 800 mg, po qd after 7 days; type: ADME, organism-based
[25] = Apparent total volume of distribution in healthy human at 800 mg, po qd after 1 day; type: ADME, organism-based; conditions: in vivo, read-out: Vz/F
[26] = Apparent total volume of distribution in healthy human at 800 mg, po qd after 7 days; type: ADME, organism-based; conditions: in vivo, read-out: Vz/F
[27] = Half life in healthy human at 800 mg, po qd after 7 days; type: ADME, organism-based; conditions: in vivo
[28] = system: Human immunodeficiency virus 1; assay: Antiviral activity against HIV1; type: functional, organism-based
Homo sapiens [29] = organism: Homo sapiens; assay: Protein binding in human; type: ADME, organism-based; conditions: in vivo
[30] = Oral bioavailability in human; type: ADME, organism-based; conditions: in vivo
Homo sapiens [31] = assay: Toxicity in healthy human assessed as incidence of adverse events at 50 to 1200 mg, po administered as single dose; type: organism-based; conditions: in vivo
Homo sapiens [32] = assay: Toxicity in healthy human assessed as occurrence of abnormal dreams at 50 to 1200 mg, po administered as single dose; type: organism-based; conditions: in vivo
Homo sapiens [33] = assay: Toxicity in healthy human assessed as occurrence of dizziness at 50 to 1200 mg, po administered as single dose; type: organism-based; conditions: in vivo
Homo sapiens [34] = assay: Toxicity in healthy human assessed as occurrence of head ache at 50 to 1200 mg, po administered as single dose; type: organism-based; conditions: in vivo
Homo sapiens [35] = assay: Toxicity in healthy human assessed as occurrence of nausea at 50 to 1200 mg, po administered as single dose; type: organism-based; conditions: in vivo
Homo sapiens [36] = assay: Toxicity in healthy human assessed as occurrence of pollakiuria at 50 to 1200 mg, po administered as single dose; type: organism-based; conditions: in vivo
Homo sapiens [37] = assay: Toxicity in healthy human assessed as incidence of adverse events at 400 mg, po bid and 800 mg, po qd for 7 days; type: organism-based; conditions: in vivo, 168 h
Homo sapiens [38] = assay: Toxicity in healthy human assessed as incidence of abnormal dreams at 400 mg, po bid and 800 mg, po qd for 7 days; type: organism-based; conditions: in vivo, 168 h
Homo sapiens [39] = assay: Toxicity in healthy human assessed as incidence of dizziness at 400 mg, po bid and 800 mg, po qd for 7 days; type: organism-based; conditions: in vivo, 168 h
Homo sapiens [40] = assay: Toxicity in healthy human assessed as incidence of nausea at 400 mg, po bid and 800 mg, po qd for 7 days; type: organism-based; conditions: in vivo, 168 h
Homo sapiens [41] = assay: Toxicity in healthy human assessed as incidence of pollakiuria at 400 mg, po bid and 800 mg, po qd for 7 days; type: organism-based; conditions: in vivo, 168 h
[42] = AUC (0 to infinity) in fasted state healthy human at 50 mg, po administered as single dose; type: ADME, organism-based; set-up: dose 50 mg, route oral, time infinity; conditions: plasma
[43] = AUC (0 to infinity) in fasted state healthy human at 100 mg, po administered as single dose; type: ADME, organism-based; set-up: dose 100 mg, time infinity, route oral; conditions: plasma
[44] = AUC (0 to infinity) in fasted state healthy human at 200 mg, po administered as single dose; type: ADME, organism-based; set-up: dose 200 mg, time infinity, route oral; conditions: plasma
[45] = AUC (0 to infinity) in fed state healthy human at 200 mg, po administered as single dose; type: ADME, organism-based; set-up: dose 200 mg, route oral, time infinity; conditions: plasma
[46] = AUC (0 to infinity) in fasted state healthy human at 400 mg, po administered as single dose; type: ADME, organism-based; set-up: dose 400 mg, time infinity, route oral; conditions: plasma
[47] = AUC (0 to infinity) in fed state healthy human at 400 mg, po administered as single dose; type: ADME, organism-based; set-up: dose 400 mg, route oral, time infinity; conditions: plasma
[48] = AUC (0 to infinity) in fed state female healthy human at 400 mg, po administered as single dose; type: ADME, organism-based; set-up: dose 400 mg, time infinity, route oral; conditions: plasma
[49] = AUC (0 to infinity) in fed state healthy human at 800 mg, po administered as single dose; type: ADME, organism-based; set-up: dose 800 mg, time infinity, route oral; conditions: plasma
[50] = AUC (0 to infinity) in fed state healthy human at 1200 mg, po administered as single dose; type: ADME, organism-based; set-up: dose 1200 mg, route oral, time infinity; conditions: plasma
[51] = Cmax in fasted state healthy human at 50 mg, po administered as single dose; type: ADME, organism-based; set-up: dose 50 mg, route oral; conditions: in vivo

With `COP(=O)(c1cc(C)cc(/C=C/C#N)c1)c1c(C(N)=O)[nH]c2ccc(Cl)cc12` (stereo unspecified) the Vd/F [1] was 329 L, the Vd/F [2] was 301 L and the Vd/F [3] was 134 L. The AUC(0-inf) [4] was 35200 ng·h/mL, the Cmax [5] was 2000 ng/mL and the Cmax [6] was 4000 ng/mL. It also gave a Tmax [7] of 4 h, a Tmax [8] of 4 h and a half-life [9] of 738 min. The concentration at 24 h [10] was 800 ng/mL, the concentration at 168 h [11] was 2100 ng/mL and the CL/F [12] was 268 mL/min. It also gave a Vd/F [13] of 236 L, an AUC(0-inf) [14] of 68000 ng·h/mL and an AUC(0-inf) [15] of 54600 ng·h/mL. The Cmax [16] was 4900 ng/mL, the Cmax [17] was 4600 ng/mL and the Tmax [18] was 4 h. For the same molecule, the Tmax [19] was 4 h, the half-life [20] was 498 min and the concentration at 24 h [21] was 900 ng/mL. The concentration at 168 h [22] was 900 ng/mL, the CL/F [23] was 252 mL/min and the CL/F [24] was 292 mL/min. The Vd/F [25] was 151 L, the Vd/F [26] was 366 L and the half-life [27] was 816 min. For the same molecule, the IC50 [28] was 1.2 nM, the Activity (Homo sapiens [29]) was > 99.8% and the bioavailability [30] was 61%. It also gave an Activity (Homo sapiens [31]) of 22.4%, an Activity (Homo sapiens [32]) of 2% and an Activity (Homo sapiens [33]) of 2%. It also gave an Activity (Homo sapiens [34]) of 8.2%, an Activity (Homo sapiens [35]) of 4.1% and an Activity (Homo sapiens [36]) of 0%. It also gave an Activity (Homo sapiens [37]) of 43.8%, an Activity (Homo sapiens [38]) of 6.3% and an Activity (Homo sapiens [39]) of 0%. It also gave an Activity (Homo sapiens [40]) of 0%, an Activity (Homo sapiens [41]) of 12.5% and an AUC(0-inf) [42] of 8800 ng·h/mL. It also gave an AUC(0-inf) [43] of 15800 ng·h/mL, an AUC(0-inf) [44] of 7100 ng·h/mL and an AUC(0-inf) [45] of 16800 ng·h/mL. The AUC(0-inf) [46] was 14700 ng·h/mL, the AUC(0-inf) [47] was 36000 ng·h/mL and the AUC(0-inf) [48] was 26500 ng·h/mL. The AUC(0-inf) [49] was 47200 ng·h/mL, the AUC(0-inf) [50] was 106 µg·h/mL and the Cmax [51] was 1600 ng/mL.
